Test results published in patent publication EP0025288A1, “Derivatives of monic acid, processes for their preparation, compositions containing them and their preparation” (priority 1979, dated 1981).

What was measured:
[1] = system: M. suipneumoniae NCTC 10110; test: MIC, anti-mycoplasmal, Friis broth solidified with 0.9% agarose; assay type: cell-based; settings: inoculum 10^3 to 10^5 C.F.U., 6 days incubation at 37°C
[2] = system: Pasteurella multocida 1633; test: MIC, human bacteria, serial dilution in nutrient agar; assay type: cell-based; settings: nutrient agar containing 5% 'chocolated' horse blood
[3] = system: Strep suis (group D) SPS11; test: MIC, veterinary bacteria; assay type: cell-based; settings: veterinary bacteria (Table 2)
[4] = system: S dublin S7; test: MIC, veterinary bacteria; assay type: cell-based; settings: veterinary bacteria (Table 2)
[5] = system: Bord bronchisptica BO9; test: MIC, veterinary bacteria; assay type: cell-based; settings: veterinary bacteria (Table 2)
[6] = system: M. bovis NCTC 10131; test: microbe, parasite or virus in culture; assay type: cell-based; settings: M. bovis NCTC 10131; inoculum 10^3 to 10^5 C.F.U., 6 days incubation at 37°C
[7] = system: Ps aeruginosa 10662; test: MIC, human bacteria, serial dilution in nutrient agar; assay type: cell-based; settings: nutrient agar containing 5% 'chocolated' horse blood
[8] = system: Staph aureus Russell; test: as above; assay type: cell-based; settings: nutrient agar containing 5% 'chocolated' horse blood
[9] = system: M. suipneumoniae UCD 1; test: MIC, anti-mycoplasmal, Friis broth solidified with 0.9% agarose; assay type: cell-based; settings: inoculum 10^3 to 10^5 C.F.U., 6 days incubation at 37°C
[10] = system: Bacillus subtilis 6633; test: MIC, human bacteria, serial dilution in nutrient agar; assay type: cell-based; settings: nutrient agar containing 5% 'chocolated' horse blood
[11] = system: M. suipneumoniae TAM 6N; test: MIC, anti-mycoplasmal, Friis broth solidified with 0.9% agarose; assay type: cell-based; settings: inoculum 10^3 to 10^5 C.F.U., 6 days incubation at 37°C
[12] = system: Staph aureus Oxford; test: MIC, veterinary bacteria; assay type: cell-based; settings: veterinary bacteria (Table 2)
[13] = system: M. suipneumoniae NB12; test: MIC, anti-mycoplasmal, Friis broth solidified with 0.9% agarose; assay type: cell-based; settings: inoculum 10^3 to 10^5 C.F.U., 6 days incubation at 37°C
[14] = system: S typhimurium S18; test: MIC, veterinary bacteria; assay type: cell-based; settings: veterinary bacteria (Table 2)
[15] = system: E coli E1; test: MIC, veterinary bacteria; assay type: cell-based; settings: veterinary bacteria (Table 2)
[16] = system: Corynebacterium zerosis 9755; test: MIC, human bacteria, serial dilution in nutrient agar; assay type: cell-based; settings: nutrient agar containing 5% 'chocolated' horse blood
[17] = system: P mirabilis 889; test: as above; assay type: cell-based; settings: nutrient agar containing 5% 'chocolated' horse blood
[18] = system: M. bovigenitalium ATCC 14173; test: MIC, anti-mycoplasmal, Friis broth solidified with 0.9% agarose; assay type: cell-based; settings: inoculum 10^3 to 10^5 C.F.U., 6 days incubation at 37°C
[19] = system: Past Haemolytica PA5; test: MIC, veterinary bacteria; assay type: cell-based; settings: veterinary bacteria (Table 2)
[20] = system: E coli NCTC 10418; test: MIC, veterinary bacteria; assay type: cell-based; settings: veterinary bacteria (Table 2)
[21] = system: M. suipneumoniae HK(2); test: MIC, anti-mycoplasmal, Friis broth solidified with 0.9% agarose; assay type: cell-based; settings: inoculum 10^3 to 10^5 C.F.U., 6 days incubation at 37°C
[22] = system: E coli NCTC 10418; test: MIC, human bacteria, serial dilution in nutrient agar; assay type: cell-based; settings: nutrient agar containing 5% 'chocolated' horse blood
[23] = system: Strep pyogenes C 2761; test: as above; assay type: cell-based; settings: nutrient agar containing 5% 'chocolated' horse blood
[24] = system: Staph aureus W2827; test: as above; assay type: cell-based; settings: nutrient agar containing 5% 'chocolated' horse blood
[25] = system: Sercina lutea 8340; test: as above; assay type: cell-based; settings: nutrient agar containing 5% 'chocolated' horse blood
[26] = system: M. hyorhinis ATCC 23234; test: MIC, anti-mycoplasmal, Friis broth solidified with 0.9% agarose; assay type: cell-based; settings: inoculum 10^3 to 10^5 C.F.U., 6 days incubation at 37°C
[27] = system: Strep dysgalaciae SPD1; test: MIC, veterinary bacteria; assay type: cell-based; settings: veterinary bacteria (Table 2)
[28] = system: Strep pyogenes A 64/848; test: MIC, human bacteria, serial dilution in nutrient agar; assay type: cell-based; settings: nutrient agar containing 5% 'chocolated' horse blood
[29] = system: M. dispar NCTC 10125; test: MIC, anti-mycoplasmal, Friis broth solidified with 0.9% agarose; assay type: cell-based; settings: inoculum 10^3 to 10^5 C.F.U., 6 days incubation at 37°C
[30] = system: pig serum; test: Serum binding by ultrafiltration; assay type: in vitro ADME; settings: compounds at 8 mcg/ml, microbiological assay (B. subtilis ATCC 6633)
Procedure: Serum binding was assessed by ultrafiltration of procine serum containing compounds at 8 mcg/ml, and through an Amicon CF50A ultrafiltration cone. Separation of ultrafiltrate was achieved by centrifugation.

[31] = system: Erysipelothrix rhusiopathiae NCTC 8163; test: MIC, veterinary bacteria; assay type: cell-based; settings: veterinary bacteria (Table 2)
[32] = system: Corynebacterium pyogenes CY1; test: MIC, veterinary bacteria; assay type: cell-based; settings: veterinary bacteria (Table 2)
[33] = system: K aerogenes A; test: MIC, human bacteria, serial dilution in nutrient agar; assay type: cell-based; settings: nutrient agar containing 5% 'chocolated' horse blood
[34] = system: M. suipneumoniae LABER; test: MIC, anti-mycoplasmal, Friis broth solidified with 0.9% agarose; assay type: cell-based; settings: inoculum 10^3 to 10^5 C.F.U., 6 days incubation at 37°C
[35] = system: Staph aureus B4 (pen resis); test: MIC, veterinary bacteria; assay type: cell-based; settings: veterinary bacteria (Table 2)
[36] = system: M. hyorhinis ATCC 25021; test: MIC, anti-mycoplasmal, Friis broth solidified with 0.9% agarose; assay type: cell-based; settings: inoculum 10^3 to 10^5 C.F.U., 6 days incubation at 37°C
[37] = system: Strep uberis SPU1; test: MIC, veterinary bacteria; assay type: cell-based; settings: veterinary bacteria (Table 2)
[38] = system: M. suipneumoniae Str. 11; test: MIC, anti-mycoplasmal, Friis broth solidified with 0.9% agarose; assay type: cell-based; settings: inoculum 10^3 to 10^5 C.F.U., 6 days incubation at 37°C
[39] = system: Strep faecalis I; test: MIC, human bacteria, serial dilution in nutrient agar; assay type: cell-based; settings: nutrient agar containing 5% 'chocolated' horse blood
[40] = system: M. suipneumoniae MS 16; test: MIC, anti-mycoplasmal, Friis broth solidified with 0.9% agarose; assay type: cell-based; settings: inoculum 10^3 to 10^5 C.F.U., 6 days incubation at 37°C
[41] = system: Past multocida PA2; test: MIC, veterinary bacteria; assay type: cell-based; settings: veterinary bacteria (Table 2)
[42] = system: Haemophilus influenzae Wy21; test: MIC, human bacteria, serial dilution in nutrient agar; assay type: cell-based; settings: nutrient agar containing 5% 'chocolated' horse blood
[43] = system: M. hyosynoviae ATCC 25591; test: MIC, anti-mycoplasmal, Friis broth solidified with 0.9% agarose; assay type: cell-based; settings: inoculum 10^3 to 10^5 C.F.U., 6 days incubation at 37°C
[44] = system: M. pneumoniae ATCC 15492; test: as above; assay type: cell-based; settings: inoculum 10^3 to 10^5 C.F.U., 6 days incubation at 37°C
[45] = system: M. suipneumoniae JF 435; test: as above; assay type: cell-based; settings: inoculum 10^3 to 10^5 C.F.U., 6 days incubation at 37°C
[46] = system: M. gallisepticum S6; test: as above; assay type: cell-based; settings: inoculum 10^3 to 10^5 C.F.U., 6 days incubation at 37°C
[47] = system: E coli ESS; test: MIC, human bacteria, serial dilution in nutrient agar; assay type: cell-based; settings: nutrient agar containing 5% 'chocolated' horse blood
[48] = system: M. suipneumoniae ATCC 25095; test: MIC, anti-mycoplasmal, Friis broth solidified with 0.9% agarose; assay type: cell-based; settings: inoculum 10^3 to 10^5 C.F.U., 6 days incubation at 37°C
[49] = system: Staph aureus 152 (pen sens); test: MIC, veterinary bacteria; assay type: cell-based; settings: veterinary bacteria (Table 2)
[50] = system: Neisseria catarrhalis 1502; test: MIC, human bacteria, serial dilution in nutrient agar; assay type: cell-based; settings: Neisseria catarrhalis 1502 (footnote a); nutrient agar containing 5% 'chocolated' horse blood
[51] = system: Strep agalactiae SPA1; test: MIC, veterinary bacteria; assay type: cell-based; settings: veterinary bacteria (Table 2)
[52] = system: Bord bronchiseptica BO8; test: MIC, veterinary bacteria; assay type: cell-based; settings: veterinary bacteria (Table 2)
[53] = system: Past multocida PA1; test: MIC, veterinary bacteria; assay type: cell-based; settings: veterinary bacteria (Table 2)
[54] = system: M. suipneumoniae J2206/183b; test: MIC, anti-mycoplasmal, Friis broth solidified with 0.9% agarose; assay type: cell-based; settings: inoculum 10^3 to 10^5 C.F.U., 6 days incubation at 37°C
[55] = system: Strep pyogenes B 2788; test: MIC, human bacteria, serial dilution in nutrient agar; assay type: cell-based; settings: nutrient agar containing 5% 'chocolated' horse blood
[56] = system: Staph aureus Oxford; test: as above; assay type: cell-based; settings: nutrient agar containing 5% 'chocolated' horse blood
[57] = system: M. suipneumoniae PW/C/210; test: MIC, anti-mycoplasmal, Friis broth solidified with 0.9% agarose; assay type: cell-based; settings: inoculum 10^3 to 10^5 C.F.U., 6 days incubation at 37°C

For “C^yclopentan-2-onyl monate A [Example 6]”, the “in vitro MIC” value [1] was 10 µg/mL, the MIC [2] was 1.0 µm/ml and the MIC [3] was 20 µg/mL. The MIC [4] was over 80 µg/mL, the MIC [5] was 20 µg/mL and the “in vitro MIC” value [6] was 0.25 µg/mL. The MIC [7] was over 100 µm/ml, the MIC [8] was 5.0 µm/ml and the “in vitro MIC” value [9] was 10 µg/mL. The MIC [10] was 2.5 µm/ml, the “in vitro MIC” value [11] was 5.0 µg/mL and the MIC [12] was 2.5 µg/mL. The “in vitro MIC” value [13] was 2.5 µg/mL, the MIC [14] was over 80 µg/mL and the MIC [15] was over 80 µg/mL. The MIC [16] was over 100 µm/ml, the MIC [17] was 100 µm/ml and the “in vitro MIC” value [18] was 0.25 µg/mL. For the same substance, the MIC [19] was 5 µg/mL, the MIC [20] was over 80 µg/mL and the “in vitro MIC” value [21] was 10 µg/mL. The MIC [22] was over 100 µm/ml, the MIC [23] was 5.0 µm/ml and the MIC [24] was 5.0 µm/ml. For the same substance, the MIC [25] was over 100 µm/ml, the “in vitro MIC” value [26] was 2.5 µg/mL and the MIC [27] was 1.25 µg/mL. The MIC [28] was 2.5 µm/ml, the “in vitro MIC” value [29] was 0.5 µg/mL and the “% bound to pig serum” value [30] was 35.6%. The MIC [31] was over 80 µg/mL, the MIC [32] was over 80 µg/mL and the MIC [33] was over 100 µm/ml. For the same substance, the “in vitro MIC” value [34] was 2.5 µg/mL, the MIC [35] was 2.5 µg/mL and the “in vitro MIC” value [36] was 2.5 µg/mL. For the same substance, the MIC [37] was 1.25 µg/mL, the “in vitro MIC” value [38] was 2.5 µg/mL and the MIC [39] was over 100 µm/ml. The “in vitro MIC” value [40] was 2.5 µg/mL, the MIC [41] was “.312 µg/mL” and the MIC [42] was 0.5 µm/ml. For the same substance, the “in vitro MIC” value [43] was 2.5 µg/mL, the “in vitro MIC” value [44] was 10 µg/mL and the “in vitro MIC” value [45] was 10 µg/mL. For the same substance, the “in vitro MIC” value [46] was over 10 µg/mL, the MIC [47] was 2.5 µm/ml and the “in vitro MIC” value [48] was 5.0 µg/mL. For the same substance, the MIC [49] was 2.5 µg/mL, the MIC [50] was “^a1.0 µm/ml” and the MIC [51] was 2.5 µg/mL. The MIC [52] was 80 µg/mL, the MIC [53] was “.625 µg/mL” and the “in vitro MIC” value [54] was 10 µg/mL. The MIC [55] was 5.0 µm/ml, the MIC [56] was 2.5 µm/ml and the “in vitro MIC” value [57] was 2.5 µg/mL.
